Measurements published in patent US8980842B2, “Contraceptive peptides derived from the venom of the spider Latrodectus mirabilis, nucleotide sequences to transform a microorganism to produce said peptides; methods to obtain the peptides; pharmaceutical compositions containing thereof and use thereof” (Universidad de la Frontera, priority 2010, dated 2015).

Key:
human spermatozoa [1] = test: Hamster oocyte penetration assay (Yanagimachi et al. 1976), fertilizing capacity of human spermatozoa; format: cell-based; conditions: agent at its IC50 from the sperm motility curve; n=15 oocytes per group; versus control
Procedure: The decrease of the fertilizing capacity of human spermatozoa was assayed using penetration assays in hamster oocytes according to the protocol initially described by Yanagimachi et al. (1976). Briefly, golden hamster oocytes were collected; their […] was removed, and oocytes were subsequently incubated with previously capacitated human spermatozoa at a concentration of 10^7 spermatozoa/ml. The incubation was prolonged for 3-6 hours. […] The oocytes were observed using phase contrast microscopy and were only considered to have been penetrated by spermatozoa when they contained a head in decondensation stage or a male pronucleus inside their cytoplasm.

human spermatozoa [2] = test: Sperm motility (immobilizing effect) assay in selected human spermatozoa (swim up); format: cell-based
Procedure: The spermicidal effect of the wild-type peptide and the constructed analog was assayed by assessing the sperm motility in human spermatozoa. For this, 15 mL of HTF-0.1% BSA medium (0.02 g BSA in 20 mL HTF) and 3 mL of HTF-1% BSA medium (0.04 g BSA in 4 mL HTF) were placed in an assay tube and incubated at 37° C. Subsequently, a sample of 2.6 mL of human semen was incubated during 25 minutes until liquefaction. Once liquefied, the sample was divided into 3 15-mL conical tubes with 2 mL of warm HTF-0.1% BSA in each tube. 860 μL of liquefied semen were vertically added to the bottom of each tube, gently pipetting to homogenize the mixture avoiding the formation of bubbles. Large clots were removed. Subsequently, the sample was centrifuged for 8 minutes at 1,800 rpm and the supernatant was discarded by touching only the surface of the medium with the pipette tip just on the tube walls and pipetting out the liquid. […] Then, spermatozoa were counted, reaching values around 10 million of selected spermatozoa per mL (10×10^6/mL). Different concentrations of the total venom and the different venom fractions obtained in the chromatographic purification, as well as the constructed analog peptide, were applied to samples of the spermatozoid previously selected and counted and were incubated in HTF medium for 45 minutes at 37° C. […]

20-amino acid linear analog of the venom peptide, cysteine 43 replaced by alanine; SLAKTNCFTTEYFQHCVKDL [Ac-[Ala^43]-ATX41-60-NH2]
decrease in the fertilizing capacity of spermatozoa (human spermatozoa [1]): 82±0.3% | spermatozoids affected at maximal doses (human spermatozoa [2]; maximal doses (FIG. 2)): 100% | IC50 of the immobilizing effect (spermatozoa with no progressive linear movement) (human spermatozoa [2]; selected human spermatozoa (swim up), incubated 45 minutes in HTF medium, 37° C.): 39.81 µg/mL
